The values below come from paper PMC8750527 (Cancers, 2021).

Read-outs that look alike come from different tables or passages of the source.

One series has as its system C8-D1A. Nature of the series: MTT assay, 48 h exposure, murine primary astrocytes. It is filed as cell-based. The method, then: (§1) HDF (3000 cells), C8-D1A (5000 cells), D458 (5000 cells), DAOY (2000 cells), HD-MB03 (10,000 cells) and CHLA-01-Med (10,000 cells) were seeded at an approximate confluency of 50% in 96-well plates (Corning Inc., Corning, NY, USA) in 100 µL medium per well. A range from 50 nM to 150 µM of every drug was tested. The effects of the antiangiogenic compounds were measured using a 3-[4,5-dimethylthiazol-2yl]-diphenyltetrazolium bromide (MTT) colorimetric assay (Sigma, Lyon, France) according to the manufacturer’s instructions. When applicable, IC50 was calculated using the nonlinear regression method of the Prism 5 software (Graphpad Software Inc., San Diego, CA, USA). […] An MTT assay was conducted as described above to assess the fitness of the cells.

Another series deals with CHLA-01-Med. As to the kind of experiment: MTT assay, 48 h exposure, CHLA-01-Med MB cells. The class given is cell-based, human. The procedure: as §1
A general note: Tetrazolium assays rely on reduction of a dye to a coloured formazan, in cell work by metabolically active cells.

The test system of the next series is MB cells. Nature of the series: Cell viability, propidium iodine incorporation, MB cells. It is filed as cell-based, human. Particulars: 48 h, 5 µM. The method, then:
(§2) Cell viability assays were conducted using a propidium iodine incorporation technique with an ADAM-sHIT automated cell counter (NanoEnTek, Gyeonggi-do, Korea) according to the manufacturer’s protocol.

The test system of a further series is D458. As to the kind of experiment: MTT assay, 48 h exposure, D458 MB cells. It is filed as cell-based, human. Particulars: for IC50: MTT, 48 h exposure, mean ± SEM. The method, then:
as §1

The subject of another series is DAOY. As to the kind of experiment: MTT assay, 48 h exposure, DAOY MB cells. The class given is cell-based, human. Particulars: for IC50: MTT, 48 h exposure, mean ± SEM. The procedure:
as §1

The subject of series [1] is HDF. Nature of the series: MTT assay, 48 h exposure, human dermal fibroblasts. It is filed as cell-based. The method, then: as §1
For a further series, the system named is HD-MB03. As to the kind of experiment: MTT assay, 48 h exposure, HD-MB03 MB cells. The class given is cell-based, human. The conditions noted are these: for IC50: MTT, 48 h exposure, mean ± SEM. The method, then:
as §1

Series [2] concerns HDF. Nature of the series: Cell viability, propidium iodine incorporation, HDF. The class given is cell-based, human. Particulars: 48 h; axitinib, cabozantinib 5 µM, etoposide 1 µM. The method, then: as §2
The subject of the next series is C8-D1A astrocytes. As to the kind of experiment: Cell viability, propidium iodine incorporation, C8-D1A. The class given is cell-based, murine. The conditions noted are these: 48 h; axitinib, cabozantinib, sunitinib 5 µM, etoposide 1 µM. The procedure:
as §2

One may read the IC50 as the midpoint of a concentration-inhibition curve. In the case of `COc1cc2nccc(Oc3ccc(NC(=O)C4(C(=O)Nc5ccc(F)cc5)CC4)cc3)c2cc1OC` [Cabozantinib, cabozantinib], the IC50 in the series on C8-D1A (Mus musculus, C8-D1A, Table 1, normal cells, mean ± SEM, read-out: IC50 (µM) C8D1A) is 4 ± 2.2 µM; with CHLA-01-Med (Homo sapiens, Table 1, MTT, 48 h exposure, mean ± SEM), 11.4 ± 2.1 µM; in the series with D458 (Homo sapiens, Table 1) it was 5.1 ± 1.6 µM; with DAOY (Homo sapiens, Daoy, Table 1), 8.3 ± 1.2 µM; with HDF [1] (Homo sapiens, HDF, Table 1, normal cells, mean ± SEM), 4.1 ± 1.9 µM; with HD-MB03 (Homo sapiens, HD-MB03, Table 1), 0.78 ± 0.2 µM. Moreover, the “Specificity Index relative to C8D1A, CHLA-01-Med” value in the series on CHLA-01-Med (ratio IC50 C8-D1A / IC50 CHLA-01-Med) was 0.35. In addition, the “Specificity Index relative to HDF, CHLA-01-Med” value in the series with CHLA-01-Med (ratio IC50 HDF / IC50 CHLA-01-Med) turned out to be 0.36. Also, the “viability of MB cells” value with MB cells was “decreased the viability of most MB cells”. For the same compound, in the series on D458 (ratio IC50 C8-D1A / IC50 D458), the “Specificity Index relative to C8D1A, D458” value is 0.78. The “Specificity Index relative to HDF, D458” value in the series with D458 (ratio IC50 HDF / IC50 D458) amounted to 0.80. Further, the “Specificity Index relative to C8D1A, DAOY” value in the series with DAOY (ratio IC50 C8-D1A / IC50 DAOY) was 0.48. For the same compound, the “Specificity Index relative to HDF, DAOY” value with DAOY (ratio IC50 HDF / IC50 DAOY) is reported as 0.49. The “Specificity Index relative to C8D1A, HDMB” value with HD-MB03 (ratio IC50 C8-D1A / IC50 HD-MB03) was 5.13. The “Specificity Index relative to HDF, HD-MB03” value in the series with HD-MB03 (ratio IC50 HDF / IC50 HD-MB03) stood at 5.26. Besides, the “viability of HDF normal cells” value with HDF [2] is reported as “no effect on the viability”. In addition, in the series with C8-D1A astrocytes, the “viability of C8-D1A normal cells” value is recorded as “no effect on the viability”.

On to `N.N.O=C([O-])C1(C(=O)[O-])CCC1.[Pt+2]` [Carboplatin, carboplatin], for which the IC50 with C8-D1A (Table 3, mean ± SEM) was over 20 µM; in the series on D458 (Table 3), over 20 µM; with DAOY (Table 3), over 20 µM; in the series with HDF [1] (Table 3, mean ± SEM), over 20 µM; in the series with HD-MB03 (Table 3), over 20 µM.
